Patent publication US20130158070A1, “CONJUGATES OF POLYUNSATURATED FATTY ACIDS AND AMINE-CONTAINING COMPOUNDS AND USES THEREOF” (priority 2010, published 2013)
Several values for one entry are separate records, joined by “and”; a condition that tells them apart may be missing. Equal values may be shown once.

Tests used:
[1] = target: T1, hERG channels (Homo sapiens, UniProt Q12809); assay: hERG channels expressed in Xenopus oocytes, two-electrode voltage clamp; type: cell-based; set-up: initial current / final current / remaining current / avarage (remaining current): unit not given here; conditions: for final current: at −130 mV; for final current / remaining current / initial current: individual oocytes; for avarage (remaining current): 5 oocytes; for initial current: at −130 mV after pre-pulse to +40 mV
T1 construct: expressed in transfected cells; host or cells: Xenopus laevis oocytes injected with hERG cRNA (pSP64 vector, SP6 promoter)
T1 sequence (Q12809 whole entry): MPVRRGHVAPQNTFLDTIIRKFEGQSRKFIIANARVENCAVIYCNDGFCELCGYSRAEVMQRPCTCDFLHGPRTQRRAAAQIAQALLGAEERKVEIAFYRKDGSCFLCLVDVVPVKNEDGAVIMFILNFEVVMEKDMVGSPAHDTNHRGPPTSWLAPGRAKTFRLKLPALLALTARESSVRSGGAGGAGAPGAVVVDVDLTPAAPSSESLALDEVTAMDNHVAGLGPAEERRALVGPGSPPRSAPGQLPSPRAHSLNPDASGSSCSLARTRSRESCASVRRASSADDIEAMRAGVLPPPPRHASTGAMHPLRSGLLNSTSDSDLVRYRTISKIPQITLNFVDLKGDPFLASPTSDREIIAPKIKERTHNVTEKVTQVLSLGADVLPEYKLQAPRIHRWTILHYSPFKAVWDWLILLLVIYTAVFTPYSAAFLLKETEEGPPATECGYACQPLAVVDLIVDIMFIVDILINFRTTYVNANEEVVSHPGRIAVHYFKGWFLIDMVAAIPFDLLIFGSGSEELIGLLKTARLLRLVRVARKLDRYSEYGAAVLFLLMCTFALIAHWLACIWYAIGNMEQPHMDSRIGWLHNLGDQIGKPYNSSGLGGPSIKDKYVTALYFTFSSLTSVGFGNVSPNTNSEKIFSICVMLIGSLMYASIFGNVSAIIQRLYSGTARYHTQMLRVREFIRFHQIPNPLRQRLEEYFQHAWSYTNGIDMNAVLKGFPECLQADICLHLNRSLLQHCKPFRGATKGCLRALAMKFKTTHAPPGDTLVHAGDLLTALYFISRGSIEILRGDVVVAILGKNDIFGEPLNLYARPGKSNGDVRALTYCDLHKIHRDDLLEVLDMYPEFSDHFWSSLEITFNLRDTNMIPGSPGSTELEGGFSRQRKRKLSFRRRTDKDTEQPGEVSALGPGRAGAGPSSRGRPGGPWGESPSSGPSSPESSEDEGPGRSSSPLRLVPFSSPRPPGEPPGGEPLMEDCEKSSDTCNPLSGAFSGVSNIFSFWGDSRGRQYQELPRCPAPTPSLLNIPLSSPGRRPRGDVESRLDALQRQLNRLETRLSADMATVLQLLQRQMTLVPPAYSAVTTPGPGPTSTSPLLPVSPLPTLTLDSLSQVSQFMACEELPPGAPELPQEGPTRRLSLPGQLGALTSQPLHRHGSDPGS
Procedure: The sensitivity of hERG channels to two compounds, MWL001 also termed in the application as MW001 or MWL-001 and MWL002 also termed MW002 or MWL-002, was tested using the Xenopus oocyte expression system and the two-electrode voltage clamp technique. Activity of the compounds was tested at a concentration of 15 μM both from the external and from the internal sides of the membrane.
Clones: hERG gene (gi|26051269) was cloned within pSP64 expression vector (Promega) downstream to a SP6 RNA polymerase promoter. cRNA was prepared following digestion with EcoR I.
Electrophysiology: Xenopus laevis oocytes were isolated, defolliculated and maintained at 17° C. in ND-91 solution (in mM): 91 NaCl, 2 KCl, 1.8 CaCl2, 1 MgCl2, and 5 HEPES, pH 7.5, supplemented with 100 U/ml penicillin, 100 μg/ml streptomycin and 50 μg/ml gentamycin. Oocytes were injected with 20 or 40 nl, containing 7-14 ng of hERG cRNA. Whole-cell currents were measured 2-3 days after injection by the two-electrode voltage clamp technique (TEVC), using a GeneClamp 500B amplifier (Axon Instruments). Data were filtered at 2 kHz and sampled at 5 kHz with Clampex 9.0 software (Axon Instruments). The pipette was filled with 3M KCl and the bath solution contained (in mM): 4 KCl, 96 NaCl, 1 MgCl2, 0.3 CaCl2, 5 HEPES, pH 7.4. For external application of the compounds, stock solutions of either MWL001 or MWL002 were dissolved in the bath solution to a final concentration of 15 μM. During the experiments, bath solution exchange rate was about 2 ml/minutes. At this rate, more than 95% of the bath solution is replaced within 30 seconds. For internal blockade measurements, oocytes were injected with 46 nl of diluted (0.274 mM) compound solutions to achieve a final concentration within the oocyte of 15 μM.
Internal application: Compounds were injected into the oocyte to achieve a final concentration of 15 μM. Injection was made during current measurements and results were collected before and for 5 minutes after the injection. Current levels were determined in 4 seconds intervals at −130 mV, following a pre-pulse to +40 mV (see, Table 4 and FIG. 3).
External application: MWL compounds were applied at 15 μM concentration in the bath solution and current levels were determined in 4 seconds intervals at −130 mV, following a pre-pulse to +40 mV, for 15 minutes (see, Table 4). In addition, measurements were made to determine channel behavior throughout the entire physiological voltage range.
Table 4 presents the data obtained for the effect of MWL compounds on expressed hERG channels in individual oocytes which were either incubated (external) or injected (internal) with MWL compounds. Currents were monitored for 15 or 5 minutes, respectively.

[2] = target: T2, COX-2 (Homo sapiens, UniProt P35354); assay: COX-2 inhibition, enzyme immunoassay (EIA); type: biochemical; conditions: ratio of COX-1 IC50 to COX-2 IC50
T2 sequence (P35354 18-604): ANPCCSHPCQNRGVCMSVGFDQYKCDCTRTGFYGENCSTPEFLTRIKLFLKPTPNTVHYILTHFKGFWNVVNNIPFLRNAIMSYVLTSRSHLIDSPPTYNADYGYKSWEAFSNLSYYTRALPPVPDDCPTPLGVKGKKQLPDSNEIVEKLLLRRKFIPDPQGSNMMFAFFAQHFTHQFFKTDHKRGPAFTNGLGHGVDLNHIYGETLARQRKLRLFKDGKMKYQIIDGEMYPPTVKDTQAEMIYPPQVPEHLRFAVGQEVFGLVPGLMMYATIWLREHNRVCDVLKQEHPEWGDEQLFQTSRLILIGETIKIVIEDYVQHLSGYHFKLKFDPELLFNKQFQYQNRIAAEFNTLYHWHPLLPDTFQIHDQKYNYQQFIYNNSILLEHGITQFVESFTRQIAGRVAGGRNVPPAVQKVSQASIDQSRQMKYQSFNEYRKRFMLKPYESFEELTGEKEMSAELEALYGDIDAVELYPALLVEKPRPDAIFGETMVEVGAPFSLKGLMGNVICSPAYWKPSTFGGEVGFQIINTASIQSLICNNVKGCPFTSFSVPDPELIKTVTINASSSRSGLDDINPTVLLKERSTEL
Procedure: Exemplary conjugates as described herein were tested in vitro for inhibition of COX-1 and COX-2, using an enzyme immunoassay (EIA), as follows.
Cyclooxygenase catalyzes the first step in the biosynthesis of arachidonic acid (AA) to PGH2. PGF2α, produced from PGH2 by reduction with stannous chloride, is measured by enzyme immunoassay (ACETM competitive EIA).
Stock solutions of test compounds were dissolved in a minimum volume of DMSO. Briefly, to a series of supplied reaction buffer solutions (960 μl, 0.1M Tris-HCl pH 8.0 containing 5 mM EDTA and 2 mM phenol) with either COX-1 or COX-2 (10 μl) enzyme in the presence of heme (10 μl) were added 10 μl of various concentrations of test drug solutions (0.01, 0.1, 1, 10, 50, and 100 μM in a final volume of 1 ml). These solutions were incubated for a period of 5 minutes at 37° C. after which 10 μL of AA (100 μM) solution were added and the COX reaction was stopped by the addition of 50 μl of 1M HCl after 2 minutes. PGF2α, produced from PGH2 by reduction with stannous chloride was measured by enzyme immunoassay.
This assay is based on the competition between PGs and a PG-acetylcholinesterase conjugate (PG tracer) for a limited amount of PG antiserum. The amount of PG tracer that is able to bind to the PG antiserum is inversely proportional to the concentration of PGs in the wells since the concentration of PG tracer is held constant while the concentration of PGs varies. The concentration of the test compound causing 50% inhibition (IC50, μM) was calculated from the concentration-inhibition response curve (duplicate determinations).

[3] = external application 15 μM in bath, monitored 15 minutes
[4] = external application 15 μM, 15 minutes
[5] = external application, before exposure
[6] = internal application (injected) 15 μM, 5 minutes
[7] = internal application (injected) 15 μM, monitored 5 minutes
[8] = internal application, before injection

**Q.** For `CCC=CCC=CCC=CCC=CCC=CCC=CCCC(=O)N1CC(O)CC1C(=O)O` (stereo not shown) [MWL001], which final current [1, 3] is on record?
**A.** −12.8 and −15.5 and −15.8 and −10.8 and −26.0

**Q.** What about the “avarage (remaining current)” value [1, 4] of the same compound?
**A.** 95.7

**Q.** What about the remaining current [1, 4] of the same compound?
**A.** 100.8 and 91.2 and 98.1 and 100.0 and 88.6

**Q.** And the initial current [1, 5]?
**A.** −12.7 and −17.0 and −16.1 and −10.8 and −29.3

**Q.** What about the “avarage (remaining current)” value [1, 6] of the same compound?
**A.** 101.6

**Q.** What about the remaining current [1, 6] of the same compound?
**A.** 95.6 and 101.8 and 112.3 and 100.0 and 98.4

**Q.** What about the final current [1, 7] of the same compound?
**A.** −6.5 and −11.1 and −15.5 and −9.5 and −18.5

**Q.** And the initial current [1, 8]?
**A.** −6.8 and −10.9 and −13.8 and −9.5 and −18.8

**Q.** What about the “Ratio (COX ½)” value [2] of the same compound?
**A.** 464.11

**Q.** Which results are given for `CC/C=C\C/C=C\C/C=C\C/C=C\C/C=C\C/C=C\CCC(=O)NCCS(=O)(=O)O` [MWL002, N-docosa-4,7,10,13,16,19-hexaenoyl-taurine]?
**A.** effect on hERG channel currents ([1]; 15 μM, internal and external exposure): no sensitivity; final current [1, 3]: −7.1 and −5.0 and −7.2 and −18.0 and −9.0; avarage (remaining current) [1, 4]: 108.2; remaining current [1, 4]: 91.6 and 109.9 and 120.0 and 102.9 and 116.9; initial current [1, 5]: −7.8 and −4.6 and −6.0 and −17.5 and −7.7; avarage (remaining current) [1, 6]: 106.9; remaining current [1, 6]: 109.6 and 103.2 and 101.8 and 107.5 and 112.7; final current [1, 7]: −13.7 and −6.5 and −11.5 and −7.2 and −8.0; initial current [1, 8]: −12.5 and −6.3 and −11.3 and −6.7 and −7.1; Ratio (COX ½) [2]: 27.86
